Results as given in patent US20250230193A1, “CYCLIC COMPOUND HAVING SELECTIVE KRAS INHIBITORY EFFECT ON HRAS AND NRAS” (CHUGAI SEIYAKU KABUSHIKI KAISHA, priority 2022, published 2025).

What was measured:
[1] = biological target: GDP-bound HRAS wild-type protein (Homo sapiens, UniProt P01112); experiment: Binding to HRAS by surface plasmon resonance (SPR), Single Cycle Kinetics; conditions: KD ratio, GDP-bound HRAS wild-type vs GDP-bound KRAS wild-type, SPR
[2] = biological target: GDP-bound NRAS wild-type protein (Homo sapiens, UniProt P01111); experiment: Binding to NRAS by surface plasmon resonance (SPR), Single Cycle Kinetics; conditions: KD ratio, GDP-bound NRAS wild-type vs GDP-bound KRAS wild-type, SPR
Chain of GDP-bound NRAS wild-type protein (P01111 whole entry): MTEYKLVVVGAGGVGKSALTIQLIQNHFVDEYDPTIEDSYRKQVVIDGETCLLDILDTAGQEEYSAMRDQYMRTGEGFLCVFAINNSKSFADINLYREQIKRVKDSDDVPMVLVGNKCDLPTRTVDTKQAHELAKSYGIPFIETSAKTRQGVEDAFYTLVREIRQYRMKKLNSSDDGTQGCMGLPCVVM

Chain of GDP-bound HRAS wild-type protein (P01112 whole entry): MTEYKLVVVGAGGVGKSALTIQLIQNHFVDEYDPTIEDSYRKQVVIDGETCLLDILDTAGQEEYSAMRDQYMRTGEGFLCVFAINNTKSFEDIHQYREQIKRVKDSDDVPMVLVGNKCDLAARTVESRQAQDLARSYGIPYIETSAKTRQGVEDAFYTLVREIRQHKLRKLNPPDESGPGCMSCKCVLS

CCCN(C)C(=O)[C@@H]1CC(=O)N(C)[C@@H](CC2CC2)C(=O)N[C@@H]([C@@H](C)CC)C(=O)N(C)CC(=O)N(C)[C@H]2C/C=C\CCN(C2=O)[C@@H](Cc2ccc(C(F)(F)F)cc2)C(=O)N(C)CC(=O)N[C@@H](CCc2cc(F)c(C(F)(F)F)c(F)c2)C(=O)N2C[C@H](OCC)C[C@H]2C(=O)NC2(CC(F)(F)C2)C(=O)N(C)[C@@H](C2CCCC2)C(=O)N1C [PP1739]
HRAS/KRAS (ratio of KD value for HRAS to KD value for KRAS) [1]: AA (a compound having 20 or more is denoted as AA) | NRAS/KRAS (ratio of KD value for NRAS to KD value for KRAS) [2]: AA (a compound having 20 or more is denoted as AA)

CCCC[C@H]1C(=O)N[C@@H]([C@@H](C)CC)C(=O)N(C)CC(=O)N(C)[C@H]2C/C=C\CCN(C2=O)[C@@H](Cc2ccc(C(F)(F)F)cc2)C(=O)N(C)CC(=O)N[C@@H](CCc2cc(F)c(C(F)(F)F)c(F)c2)C(=O)N2C[C@H](OCC)C[C@H]2C(=O)NC2(CC(F)(F)C2)C(=O)N(C)[C@@H](C2CCCC2)C(=O)N(C)[C@H](C(=O)N(C)C)CC(=O)N1C [PP1740]
HRAS/KRAS (ratio of KD value for HRAS to KD value for KRAS) [1]: A (a compound having 10 or more and less than 20 is denoted as A) | NRAS/KRAS (ratio of KD value for NRAS to KD value for KRAS) [2]: A (a compound having 10 or more and less than 20 is denoted as A)

CCO[C@@H]1C[C@H]2C(=O)NC3(CC(F)(F)C3)C(=O)N(C)[C@@H](C3CCCC3)C(=O)N(C)[C@H](C(=O)N(C)C)CC(=O)N(C)[C@@H](CC(C)C)C(=O)N[C@@H]([C@@H](C)CC)C(=O)N(C)CC(=O)N(C)[C@H]3C/C=C\CCN(C3=O)[C@@H](Cc3ccc(C(F)(F)F)cc3)C(=O)N(C)CC(=O)N[C@@H](CCc3cc(F)c(C(F)(F)F)c(F)c3)C(=O)N2C1 [PP1741]
HRAS/KRAS (ratio of KD value for HRAS to KD value for KRAS) [1]: B (a compound having 3 or more and less than 10 is denoted as B) | NRAS/KRAS (ratio of KD value for NRAS to KD value for KRAS) [2]: A (a compound having 10 or more and less than 20 is denoted as A)

CCO[C@@H]1C[C@H]2C(=O)NC3(CC(F)(F)C3)C(=O)N(C)[C@@H](C3CCCC3)C(=O)N(C)[C@H](C(=O)N(C)C)CC(=O)N(C)[C@@H](CC3CCC3)C(=O)N[C@@H]([C@@H](C)CC)C(=O)N(C)CC(=O)N(C)[C@H]3C/C=C\CCN(C3=O)[C@@H](Cc3ccc(C(F)(F)F)cc3)C(=O)N(C)CC(=O)N[C@@H](CCc3cc(F)c(C(F)(F)F)c(F)c3)C(=O)N2C1 [PP1742]
HRAS/KRAS (ratio of KD value for HRAS to KD value for KRAS) [1]: A (a compound having 10 or more and less than 20 is denoted as A) | NRAS/KRAS (ratio of KD value for NRAS to KD value for KRAS) [2]: A (a compound having 10 or more and less than 20 is denoted as A)

CCCN(C)C(=O)[C@@H]1CC(=O)N(C)[C@@H](COC)C(=O)N[C@@H]([C@@H](C)CC)C(=O)N(C)CC(=O)N(C)[C@H]2C/C=C\CCN(C2=O)[C@@H](Cc2ccc(C(F)(F)F)cc2)C(=O)N(C)CC(=O)N[C@@H](CCc2cc(F)c(C(F)(F)F)c(F)c2)C(=O)N2C[C@H](OCC)C[C@H]2C(=O)NC2(CC(F)(F)C2)C(=O)N(C)[C@@H](C2CCCC2)C(=O)N1C [PP1743]
HRAS/KRAS (ratio of KD value for HRAS to KD value for KRAS) [1]: A (a compound having 10 or more and less than 20 is denoted as A) | NRAS/KRAS (ratio of KD value for NRAS to KD value for KRAS) [2]: AA (a compound having 20 or more is denoted as AA)

CCCOC[C@H]1C(=O)N[C@@H]([C@@H](C)CC)C(=O)N(C)CC(=O)N(C)[C@H]2C/C=C\CCN(C2=O)[C@@H](Cc2ccc(C(F)(F)F)cc2)C(=O)N(C)CC(=O)N[C@@H](CCc2cc(F)c(C(F)(F)F)c(F)c2)C(=O)N2C[C@H](OCC)C[C@H]2C(=O)NC2(CC(F)(F)C2)C(=O)N(C)[C@@H](C2CCCC2)C(=O)N(C)[C@H](C(=O)N(C)CCC)CC(=O)N1C [PP1744]
HRAS/KRAS (ratio of KD value for HRAS to KD value for KRAS) [1]: A (a compound having 10 or more and less than 20 is denoted as A) | NRAS/KRAS (ratio of KD value for NRAS to KD value for KRAS) [2]: A (a compound having 10 or more and less than 20 is denoted as A)

CCO[C@@H]1C[C@H]2C(=O)NC3(CC(C)(C)C3)C(=O)N(C)[C@@H](C3CCCC3)C(=O)N(C)[C@H](C(=O)N(C)C)CC(=O)N(C)[C@@H](CC)C(=O)N[C@@H]([C@@H](C)CC)C(=O)N(C)CC(=O)N(C)[C@H]3C/C=C\CCN(C3=O)[C@@H](Cc3ccc(C(F)(F)F)cc3)C(=O)N(C)CC(=O)N[C@@H](CCc3ccc(C(F)(F)F)c(Cl)c3)C(=O)N2C1 [PP1746]
HRAS/KRAS (ratio of KD value for HRAS to KD value for KRAS) [1]: A (a compound having 10 or more and less than 20 is denoted as A) | NRAS/KRAS (ratio of KD value for NRAS to KD value for KRAS) [2]: A (a compound having 10 or more and less than 20 is denoted as A)

CCO[C@@H]1C[C@H]2C(=O)NC3(CC(C)(C)C3)C(=O)N(C)[C@@H](C3CCCC3)C(=O)N(C)[C@H](C(=O)N(C)C)CC(=O)N(C)[C@@H](CC(F)F)C(=O)N[C@@H]([C@@H](C)CC)C(=O)N(C)CC(=O)N(C)[C@H]3C/C=C\CCN(C3=O)[C@@H](Cc3ccc(C(F)(F)F)cc3)C(=O)N(C)CC(=O)N[C@@H](CCc3ccc(C(F)(F)F)c(Cl)c3)C(=O)N2C1 [PP1747]
HRAS/KRAS (ratio of KD value for HRAS to KD value for KRAS) [1]: A (a compound having 10 or more and less than 20 is denoted as A) | NRAS/KRAS (ratio of KD value for NRAS to KD value for KRAS) [2]: A (a compound having 10 or more and less than 20 is denoted as A)

CCC[C@H]1C(=O)N[C@@H]([C@@H](C)CC)C(=O)N(C)CC(=O)N(C)[C@H]2C/C=C\CCN(C2=O)[C@@H](Cc2ccc(C(F)(F)F)cc2)C(=O)N(C)CC(=O)N[C@@H](CCc2ccc(C(F)(F)F)c(Cl)c2)C(=O)N2C[C@H](OCC)C[C@H]2C(=O)NC2(CC(C)(C)C2)C(=O)N(C)[C@@H](C2CCCC2)C(=O)N(C)[C@H](C(=O)N(C)C)CC(=O)N1C [PP1748]
HRAS/KRAS (ratio of KD value for HRAS to KD value for KRAS) [1]: B (a compound having 3 or more and less than 10 is denoted as B) | NRAS/KRAS (ratio of KD value for NRAS to KD value for KRAS) [2]: A (a compound having 10 or more and less than 20 is denoted as A)

CCO[C@@H]1C[C@H]2C(=O)NC3(CC(C)(C)C3)C(=O)N(C)[C@@H](C3CCCC3)C(=O)N(C)[C@H](C(=O)N(C)C)CC(=O)N(C)[C@@H](CC3CC3)C(=O)N[C@@H]([C@@H](C)CC)C(=O)N(C)CC(=O)N(C)[C@H]3C/C=C\CCN(C3=O)[C@@H](Cc3ccc(C(F)(F)F)cc3)C(=O)N(C)CC(=O)N[C@@H](CCc3ccc(C(F)(F)F)c(Cl)c3)C(=O)N2C1 [PP1749]
HRAS/KRAS (ratio of KD value for HRAS to KD value for KRAS) [1]: A (a compound having 10 or more and less than 20 is denoted as A) | NRAS/KRAS (ratio of KD value for NRAS to KD value for KRAS) [2]: A (a compound having 10 or more and less than 20 is denoted as A)

CCCC[C@H]1C(=O)N[C@@H]([C@@H](C)CC)C(=O)N(C)CC(=O)N(C)[C@H]2C/C=C\CCN(C2=O)[C@@H](Cc2ccc(C(F)(F)F)cc2)C(=O)N(C)CC(=O)N[C@@H](CCc2ccc(C(F)(F)F)c(Cl)c2)C(=O)N2C[C@H](OCC)C[C@H]2C(=O)NC2(CC(C)(C)C2)C(=O)N(C)[C@@H](C2CCCC2)C(=O)N(C)[C@H](C(=O)N(C)C)CC(=O)N1C [PP1750]
HRAS/KRAS (ratio of KD value for HRAS to KD value for KRAS) [1]: B (a compound having 3 or more and less than 10 is denoted as B) | NRAS/KRAS (ratio of KD value for NRAS to KD value for KRAS) [2]: A (a compound having 10 or more and less than 20 is denoted as A)

CCO[C@@H]1C[C@H]2C(=O)NC3(CC(C)(C)C3)C(=O)N(C)[C@@H](C3CCCC3)C(=O)N(C)[C@H](C(=O)N(C)C)CC(=O)N(C)[C@@H](CC(C)C)C(=O)N[C@@H]([C@@H](C)CC)C(=O)N(C)CC(=O)N(C)[C@H]3C/C=C\CCN(C3=O)[C@@H](Cc3ccc(C(F)(F)F)cc3)C(=O)N(C)CC(=O)N[C@@H](CCc3ccc(C(F)(F)F)c(Cl)c3)C(=O)N2C1 [PP1751]
HRAS/KRAS (ratio of KD value for HRAS to KD value for KRAS) [1]: A (a compound having 10 or more and less than 20 is denoted as A) | NRAS/KRAS (ratio of KD value for NRAS to KD value for KRAS) [2]: A (a compound having 10 or more and less than 20 is denoted as A)

CCO[C@@H]1C[C@H]2C(=O)NC3(CC(C)(C)C3)C(=O)N(C)[C@@H](C3CCCC3)C(=O)N(C)[C@H](C(=O)N(C)C)CC(=O)N(C)[C@@H](CC3CCC3)C(=O)N[C@@H]([C@@H](C)CC)C(=O)N(C)CC(=O)N(C)[C@H]3C/C=C\CCN(C3=O)[C@@H](Cc3ccc(C(F)(F)F)cc3)C(=O)N(C)CC(=O)N[C@@H](CCc3ccc(C(F)(F)F)c(Cl)c3)C(=O)N2C1 [PP1752]
HRAS/KRAS (ratio of KD value for HRAS to KD value for KRAS) [1]: A (a compound having 10 or more and less than 20 is denoted as A) | NRAS/KRAS (ratio of KD value for NRAS to KD value for KRAS) [2]: A (a compound having 10 or more and less than 20 is denoted as A)

CCO[C@@H]1C[C@H]2C(=O)NC3(CC(C)(C)C3)C(=O)N(C)[C@@H](C3CCCC3)C(=O)N(C)[C@H](C(=O)N(C)C)CC(=O)N(C)[C@@H](COC)C(=O)N[C@@H]([C@@H](C)CC)C(=O)N(C)CC(=O)N(C)[C@H]3C/C=C\CCN(C3=O)[C@@H](Cc3ccc(C(F)(F)F)cc3)C(=O)N(C)CC(=O)N[C@@H](CCc3ccc(C(F)(F)F)c(Cl)c3)C(=O)N2C1 [PP1753]
HRAS/KRAS (ratio of KD value for HRAS to KD value for KRAS) [1]: A (a compound having 10 or more and less than 20 is denoted as A) | NRAS/KRAS (ratio of KD value for NRAS to KD value for KRAS) [2]: A (a compound having 10 or more and less than 20 is denoted as A)

CCCOC[C@H]1C(=O)N[C@@H]([C@@H](C)CC)C(=O)N(C)CC(=O)N(C)[C@H]2C/C=C\CCN(C2=O)[C@@H](Cc2ccc(C(F)(F)F)cc2)C(=O)N(C)CC(=O)N[C@@H](CCc2ccc(C(F)(F)F)c(Cl)c2)C(=O)N2C[C@H](OCC)C[C@H]2C(=O)NC2(CC(C)(C)C2)C(=O)N(C)[C@@H](C2CCCC2)C(=O)N(C)[C@H](C(=O)N(C)C)CC(=O)N1C [PP1754]
HRAS/KRAS (ratio of KD value for HRAS to KD value for KRAS) [1]: A (a compound having 10 or more and less than 20 is denoted as A) | NRAS/KRAS (ratio of KD value for NRAS to KD value for KRAS) [2]: A (a compound having 10 or more and less than 20 is denoted as A)

CCCN(C)C(=O)[C@@H]1CC(=O)N(C)[C@@H](CC(F)F)C(=O)N[C@@H]([C@@H](C)CC)C(=O)N(C)CC(=O)N(C)[C@H]2C/C=C\CCN(C2=O)[C@@H](Cc2ccc(C(F)(F)F)cc2)C(=O)N(C)CC(=O)N[C@@H](CCc2cc(F)c(Cl)c(F)c2)C(=O)N2C[C@H](OCC)C[C@H]2C(=O)NC2(CC(C)(C)C2)C(=O)N(C)[C@@H](C2CCCC2)C(=O)N1C [PP1757]
HRAS/KRAS (ratio of KD value for HRAS to KD value for KRAS) [1]: A (a compound having 10 or more and less than 20 is denoted as A) | NRAS/KRAS (ratio of KD value for NRAS to KD value for KRAS) [2]: AA (a compound having 20 or more is denoted as AA)
